The conditions of experiment [1]: long term trials; cited from earlier work.
Experiment [2] relates to rats. The conditions noted are these: cited from earlier work.
The target of experiment [3] is T1, hMCH-1R (Homo sapiens, UniProt Q99705).
T1 construct: expressed in transfected cells; host or cells: CHO/Galpha16 cells (membrane preparation)
The experiment can be described thus: MCH-1 receptor binding test. The conditions noted are these: 125I-MCH binding, membranes of CHO/Galpha16 cells stably transfected with hMCH-1R. The protocol:
200 μL of this membrane fraction (contains 1 to 3 μg of protein) are incubated for 60 minutes at ambient temperature with 100 pM of ^125I-tyrosyl melanin concentrating hormone (^125I-MCH commercially obtainable from NEN) and increasing concentrations of the test compound in a final volume of 250 μL. After the incubation the reaction is filtered using a cell harvester through 0.5% PEI treated fiberglass filters (GF/B, Unifilter Packard). The membrane-bound radioactivity retained on the filter is then determined after the addition of scintillator substance (Packard Microscint 20) in a measuring device (TopCount of Packard). […] The analysis of the concentration binding curve is carried out on the assumption of one receptor binding site.

T1 sequence (Q99705 whole entry): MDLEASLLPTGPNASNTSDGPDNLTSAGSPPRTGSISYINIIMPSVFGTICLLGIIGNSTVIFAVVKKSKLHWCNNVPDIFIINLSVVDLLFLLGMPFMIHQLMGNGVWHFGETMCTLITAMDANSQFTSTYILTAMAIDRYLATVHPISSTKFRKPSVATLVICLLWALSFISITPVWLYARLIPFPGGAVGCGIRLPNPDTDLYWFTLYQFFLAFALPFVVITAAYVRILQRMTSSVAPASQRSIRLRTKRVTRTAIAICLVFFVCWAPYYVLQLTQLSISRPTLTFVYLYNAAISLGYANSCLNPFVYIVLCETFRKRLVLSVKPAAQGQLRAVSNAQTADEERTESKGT

With `COCC1=C(C(=O)OC)[C@H](c2ccc(F)c(F)c2)N(C(=O)NCCCN2CCC(c3cccc(NC(C)=O)c3)CC2)C(=O)N1` [SNAP-7941], in experiment [1], the body weight change entry is recorded as “lose significant amounts of weight”. Moreover, the “effects in behavioral experiments” value in experiment [2] is “anxiolytic and antidepressant effects”.
The IC50 is the concentration at which inhibition is half-maximal. Lower therefore signals higher potency. In turn, `OC[C@@H]1CCCN1CC1CCc2cc(C#Cc3ccc(-c4ccc(Cl)cc4)cn3)ccc2O1` (stereo partly shown) [Example 1.1] had an IC50 in experiment [3] of 6 nM.
On the same count and under the same terms, in the case of `CC1CCN(Cc2cc(=O)c3cc(C#Cc4ccc(-c5ccc(Cl)cc5)cn4)ccc3o2)CC1` [Example 2.1, 6-[5-(4-chlorophenyl)pyridin-2-ylethynyl]-2-(4-methylpiperidin-1-ylmethyl)-1-benzopyran-4-one] it was 3 nM.

Source of the values: US20050267120A1 (Boehringer Ingelheim International GmbH, priority 2004, published 2005).
